The source made the active and inactive calls. The rule behind the calls is not given here.
Experiments:
[1] = molecular target: MAP kinase-activated protein kinase 5 (Homo sapiens) (UniProt Q8IW41); assay: Inhibition of human PRAK assessed as remaining activity at 0.8 uM after 40 mins by scintillation counting
[2] = molecular target: Mitogen-activated protein kinase 9 (Homo sapiens) (UniProt P45984); assay: Inhibition of human JNK2alpha2 assessed as remaining activity at 0.8 uM after 40 mins by scintillation counting
[3] = molecular target: Protein kinase C theta type (Homo sapiens) (UniProt Q04759); assay: Inhibition of human PKCtheta assessed as remaining activity at 0.8 uM after 40 mins by scintillation counting
[4] = molecular target: RAF proto-oncogene serine/threonine-protein kinase (Homo sapiens) (UniProt P04049); assay: Inhibition of human RAF assessed as remaining activity at 0.8 uM after 40 mins by scintillation counting
[5] = molecular target: cGMP-dependent protein kinase 1 (Homo sapiens) (UniProt Q13976); assay: Inhibition of human PKG1alpha assessed as remaining activity at 0.8 uM after 40 mins by scintillation counting
[6] = molecular target: Mitogen-activated protein kinase kinase kinase 9 (Homo sapiens) (UniProt P80192); assay: Inhibition of human MLK1 assessed as remaining activity at 0.8 uM after 40 mins by scintillation counting
[7] = molecular target: Serine/threonine-protein kinase 17A (Homo sapiens) (UniProt Q9UEE5); assay: Inhibition of human DRAK1 assessed as remaining activity at 0.8 uM after 40 mins by scintillation counting
[8] = molecular target: Eukaryotic elongation factor 2 kinase (Homo sapiens) (UniProt O00418); assay: Inhibition of human eEF-2K assessed as remaining activity at 0.8 uM after 40 mins by scintillation counting
Homo sapiens [9] = organism: Homo sapiens; assay: Inhibition of human PI3K assessed as remaining activity at 0.8 uM after 40 mins by scintillation counting
[10] = molecular target: Dual specificity mitogen-activated protein kinase kinase 1 (Homo sapiens) (UniProt Q02750); assay: Inhibition of human MEK1 assessed as remaining activity at 0.8 uM after 40 mins by scintillation counting
[11] = molecular target: Mitogen-activated protein kinase 10 (Homo sapiens) (UniProt P53779); assay: Inhibition of human JNK3 assessed as remaining activity at 0.8 uM after 40 mins by scintillation counting
[12] = molecular target: Mitogen-activated protein kinase kinase kinase 5 (Homo sapiens) (UniProt Q99683); assay: Inhibition of human ASK1 assessed as remaining activity at 0.8 uM after 40 mins by scintillation counting
[13] = molecular target: 5'-AMP-activated protein kinase catalytic subunit alpha-1 (Homo sapiens) (UniProt Q13131); assay: Inhibition of human AMPKalpha1 assessed as remaining activity at 0.8 uM after 40 mins by scintillation counting
[14] = molecular target: Insulin-like growth factor 1 receptor (Homo sapiens) (UniProt P08069); assay: Inhibition of human IGF-1R assessed as remaining activity at 0.8 uM after 40 mins by scintillation counting
[15] = molecular target: Inhibitor of nuclear factor kappa-B kinase subunit alpha (Homo sapiens) (UniProt O15111); assay: Inhibition of human IKKalpha assessed as remaining activity at 0.8 uM after 40 mins by scintillation counting
[16] = molecular target: Tyrosine-protein kinase receptor TYRO3 (Homo sapiens) (UniProt Q06418); assay: Inhibition of human Rse assessed as remaining activity at 0.8 uM after 40 mins by scintillation counting
[17] = molecular target: Mitogen-activated protein kinase 8 (Homo sapiens) (UniProt P45983); assay: Inhibition of human JNK1alpha1 assessed as remaining activity at 0.8 uM after 40 mins by scintillation counting
[18] = molecular target: Dual specificity mitogen-activated protein kinase kinase 7 (Homo sapiens) (UniProt O14733); assay: Inhibition of human MKK7beta assessed as remaining activity at 0.8 uM after 40 mins by scintillation counting
[19] = molecular target: Tyrosine-protein kinase JAK2 (Homo sapiens) (UniProt O60674); assay: Inhibition of human JAK2 assessed as remaining activity at 0.8 uM after 40 mins by scintillation counting
[20] = molecular target: Protein kinase C alpha type (Homo sapiens) (UniProt P17252); assay: Inhibition of human PKCalpha assessed as remaining activity at 0.8 uM after 40 mins by scintillation counting
[21] = molecular target: Platelet-derived growth factor receptor beta (Homo sapiens) (UniProt P09619); assay: Inhibition of human PDGFRbeta assessed as remaining activity at 0.8 uM after 40 mins by scintillation counting
[22] = molecular target: Casein kinase II subunit alpha' (Homo sapiens) (UniProt P19784); assay: Inhibition of human CK2alpha2 assessed as remaining activity at 0.8 uM after 40 mins by scintillation counting
[23] = molecular target: Glycogen synthase kinase-3 beta (Homo sapiens) (UniProt P49841); assay: Inhibition of human GSK3beta assessed as remaining activity at 0.8 uM after 40 mins by scintillation counting
MDA-MB-436 [24] = assay: Antiproliferative activity against human MDA-MB-436 cells at 1 uM after 4 hrs by prestoblue cell viability assay; format: functional, cell-based
[25] = molecular target: Vascular endothelial growth factor receptor 2 (Homo sapiens) (UniProt P35968); assay: Inhibition of human KDR assessed as remaining activity at 0.8 uM after 40 mins by scintillation counting
[26] = molecular target: CDK6/cyclin D3 (Homo sapiens) (UniProt P30281+Q00534); assay: Inhibition of human CDK6/cyclinD3 assessed as remaining activity at 0.8 uM after 40 mins by scintillation counting; format: protein-complex assay
[27] = molecular target: SRSF protein kinase 1 (Homo sapiens) (UniProt Q96SB4); assay: Inhibition of human SRPK1 assessed as remaining activity at 0.8 uM after 40 mins by scintillation counting
[28] = molecular target: Serine/threonine-protein kinase Nek2 (Homo sapiens) (UniProt P51955); assay: Inhibition of human NEK2 assessed as remaining activity at 0.8 uM after 40 mins by scintillation counting
[29] = molecular target: Serine/threonine-protein kinase Chk1 (Homo sapiens) (UniProt O14757); assay: Inhibition of human CHK1 assessed as remaining activity at 0.8 uM after 40 mins by scintillation counting
Homo sapiens [30] = organism: Homo sapiens; assay: Inhibition of human PKA assessed as remaining activity at 0.8 uM after 40 mins by scintillation counting
[31] = molecular target: Serine/threonine-protein kinase pim-1 (Homo sapiens) (UniProt P11309); assay: Inhibition of human Pim-1 assessed as remaining activity at 0.8 uM after 40 mins by scintillation counting
[32] = molecular target: Casein kinase I isoform gamma-1 (Homo sapiens) (UniProt Q9HCP0); assay: Inhibition of human CK1gamma1 assessed as remaining activity at 0.8 uM after 40 mins by scintillation counting
[33] = molecular target: Mitogen-activated protein kinase 1 (Homo sapiens) (UniProt P28482); assay: Inhibition of human MAPK1 assessed as remaining activity at 0.8 uM after 40 mins by scintillation counting
[34] = molecular target: ALK tyrosine kinase receptor (Homo sapiens) (UniProt Q9UM73); assay: Inhibition of human ALK assessed as remaining activity at 0.8 uM after 40 mins by scintillation counting
MDA-MB-436 [35] = assay: Potentiation of doxorubicin-mediated cytotoxicity in p53-deficient human MDA-MB-436 cells at 1 uM after 4 hrs by prestoblue cell viability assay; format: functional, cell-based

Chain of ALK tyrosine kinase receptor (Homo sapiens) (Q9UM73 19-1620 limits assumed): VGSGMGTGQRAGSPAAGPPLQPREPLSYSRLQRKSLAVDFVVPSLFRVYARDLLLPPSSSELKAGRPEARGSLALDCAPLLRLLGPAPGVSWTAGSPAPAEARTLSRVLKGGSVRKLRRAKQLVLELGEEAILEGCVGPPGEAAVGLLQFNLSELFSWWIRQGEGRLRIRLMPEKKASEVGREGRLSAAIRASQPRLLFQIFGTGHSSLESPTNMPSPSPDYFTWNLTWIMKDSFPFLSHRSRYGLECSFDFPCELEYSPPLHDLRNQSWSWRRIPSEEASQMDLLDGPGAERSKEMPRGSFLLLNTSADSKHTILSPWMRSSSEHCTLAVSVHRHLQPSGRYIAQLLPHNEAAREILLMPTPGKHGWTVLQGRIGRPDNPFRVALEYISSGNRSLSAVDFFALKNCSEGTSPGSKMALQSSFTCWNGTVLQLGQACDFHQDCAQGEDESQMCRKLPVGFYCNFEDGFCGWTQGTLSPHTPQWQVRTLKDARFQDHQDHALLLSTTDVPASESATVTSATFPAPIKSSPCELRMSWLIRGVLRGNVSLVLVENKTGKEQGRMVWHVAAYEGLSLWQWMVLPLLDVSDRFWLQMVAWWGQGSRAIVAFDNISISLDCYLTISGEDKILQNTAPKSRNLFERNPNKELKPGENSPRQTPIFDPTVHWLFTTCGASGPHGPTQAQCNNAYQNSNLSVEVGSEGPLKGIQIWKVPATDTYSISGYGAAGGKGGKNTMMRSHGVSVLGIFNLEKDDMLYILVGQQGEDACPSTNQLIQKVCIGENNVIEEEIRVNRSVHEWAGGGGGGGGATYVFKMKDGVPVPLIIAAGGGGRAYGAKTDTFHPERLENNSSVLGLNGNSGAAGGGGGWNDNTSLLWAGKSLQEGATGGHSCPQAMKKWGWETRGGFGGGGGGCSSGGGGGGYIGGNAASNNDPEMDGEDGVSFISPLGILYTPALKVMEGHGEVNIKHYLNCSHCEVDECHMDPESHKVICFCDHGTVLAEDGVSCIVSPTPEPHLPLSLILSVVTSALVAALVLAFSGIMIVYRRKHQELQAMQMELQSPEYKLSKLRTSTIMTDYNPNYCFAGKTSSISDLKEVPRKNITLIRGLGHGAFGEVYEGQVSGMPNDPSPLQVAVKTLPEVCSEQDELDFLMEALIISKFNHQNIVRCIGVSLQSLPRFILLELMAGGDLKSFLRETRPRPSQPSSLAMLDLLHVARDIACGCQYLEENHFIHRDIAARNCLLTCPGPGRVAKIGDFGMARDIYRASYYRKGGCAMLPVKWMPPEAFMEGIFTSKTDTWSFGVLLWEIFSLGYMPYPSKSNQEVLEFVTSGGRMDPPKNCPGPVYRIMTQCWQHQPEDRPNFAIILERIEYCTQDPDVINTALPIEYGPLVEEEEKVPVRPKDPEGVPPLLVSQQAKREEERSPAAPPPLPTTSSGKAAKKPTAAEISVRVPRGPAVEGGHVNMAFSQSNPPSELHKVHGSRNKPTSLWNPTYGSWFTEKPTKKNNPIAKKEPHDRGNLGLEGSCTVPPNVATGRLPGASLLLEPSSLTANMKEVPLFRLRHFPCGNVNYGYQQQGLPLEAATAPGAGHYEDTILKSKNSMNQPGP
Chain of Casein kinase II subunit alpha' (Homo sapiens) (P19784 whole entry, looked up): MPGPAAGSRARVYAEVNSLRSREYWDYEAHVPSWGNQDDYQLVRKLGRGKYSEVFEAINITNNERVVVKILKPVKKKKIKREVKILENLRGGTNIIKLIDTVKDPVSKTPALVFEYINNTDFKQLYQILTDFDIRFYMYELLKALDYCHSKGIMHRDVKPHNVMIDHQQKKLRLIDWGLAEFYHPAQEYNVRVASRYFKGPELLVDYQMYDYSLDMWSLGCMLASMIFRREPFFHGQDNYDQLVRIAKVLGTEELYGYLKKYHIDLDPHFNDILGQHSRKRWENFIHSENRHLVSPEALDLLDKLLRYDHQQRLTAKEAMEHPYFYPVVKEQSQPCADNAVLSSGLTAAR
Chain of Protein kinase C theta type (Homo sapiens) (Q04759 whole entry, looked up): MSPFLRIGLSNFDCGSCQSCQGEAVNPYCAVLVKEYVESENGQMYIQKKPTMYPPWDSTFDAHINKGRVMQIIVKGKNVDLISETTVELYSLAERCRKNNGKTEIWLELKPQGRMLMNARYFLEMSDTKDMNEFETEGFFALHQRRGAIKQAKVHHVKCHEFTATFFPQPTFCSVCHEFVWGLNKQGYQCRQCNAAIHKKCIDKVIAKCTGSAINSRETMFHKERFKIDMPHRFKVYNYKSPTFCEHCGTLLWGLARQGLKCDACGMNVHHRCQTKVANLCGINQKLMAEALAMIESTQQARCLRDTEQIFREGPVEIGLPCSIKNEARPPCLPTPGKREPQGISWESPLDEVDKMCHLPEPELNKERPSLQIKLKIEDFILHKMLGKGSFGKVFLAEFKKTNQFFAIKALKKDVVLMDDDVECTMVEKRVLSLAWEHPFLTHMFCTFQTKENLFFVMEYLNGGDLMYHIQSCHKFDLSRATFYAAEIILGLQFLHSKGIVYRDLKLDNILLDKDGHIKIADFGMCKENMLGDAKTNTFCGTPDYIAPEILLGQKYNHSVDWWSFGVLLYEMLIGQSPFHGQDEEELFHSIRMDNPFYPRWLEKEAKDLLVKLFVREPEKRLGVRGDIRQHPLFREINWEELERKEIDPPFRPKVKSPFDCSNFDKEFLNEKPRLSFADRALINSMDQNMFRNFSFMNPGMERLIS
Chain of Casein kinase I isoform gamma-1 (Homo sapiens) (Q9HCP0 whole entry, looked up, canonical isoform): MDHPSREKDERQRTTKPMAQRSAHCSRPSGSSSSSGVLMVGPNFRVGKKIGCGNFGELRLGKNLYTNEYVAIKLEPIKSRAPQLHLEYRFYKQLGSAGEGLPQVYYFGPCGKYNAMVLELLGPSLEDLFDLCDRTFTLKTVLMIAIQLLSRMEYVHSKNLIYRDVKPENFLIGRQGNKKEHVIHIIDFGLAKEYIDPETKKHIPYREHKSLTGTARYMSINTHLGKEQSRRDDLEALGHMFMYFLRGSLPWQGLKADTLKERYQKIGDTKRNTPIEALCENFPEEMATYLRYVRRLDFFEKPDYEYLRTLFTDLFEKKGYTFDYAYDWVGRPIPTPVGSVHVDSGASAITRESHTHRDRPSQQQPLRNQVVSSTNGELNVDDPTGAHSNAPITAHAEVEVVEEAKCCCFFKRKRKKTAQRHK
Chain of SRSF protein kinase 1 (Homo sapiens) (Q96SB4 whole entry): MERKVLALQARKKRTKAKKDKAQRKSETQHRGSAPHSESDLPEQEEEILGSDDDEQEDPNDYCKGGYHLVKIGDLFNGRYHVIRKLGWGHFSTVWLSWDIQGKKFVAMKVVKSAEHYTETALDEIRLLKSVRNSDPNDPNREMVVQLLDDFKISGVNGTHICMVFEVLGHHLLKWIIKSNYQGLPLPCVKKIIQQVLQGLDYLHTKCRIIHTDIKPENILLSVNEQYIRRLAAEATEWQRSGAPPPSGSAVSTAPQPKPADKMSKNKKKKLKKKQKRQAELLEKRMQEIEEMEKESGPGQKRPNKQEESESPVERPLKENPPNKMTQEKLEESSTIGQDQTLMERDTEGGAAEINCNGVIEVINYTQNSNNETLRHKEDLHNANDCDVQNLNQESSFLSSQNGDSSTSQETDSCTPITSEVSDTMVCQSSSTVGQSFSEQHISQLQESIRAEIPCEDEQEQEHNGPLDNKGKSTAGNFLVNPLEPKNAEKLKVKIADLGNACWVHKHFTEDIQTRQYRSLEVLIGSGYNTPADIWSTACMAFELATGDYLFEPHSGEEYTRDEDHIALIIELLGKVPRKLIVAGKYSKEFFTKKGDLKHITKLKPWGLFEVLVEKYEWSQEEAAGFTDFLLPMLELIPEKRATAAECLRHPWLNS
Chain of 5'-AMP-activated protein kinase catalytic subunit alpha-1 (Homo sapiens) (Q13131 whole entry, looked up): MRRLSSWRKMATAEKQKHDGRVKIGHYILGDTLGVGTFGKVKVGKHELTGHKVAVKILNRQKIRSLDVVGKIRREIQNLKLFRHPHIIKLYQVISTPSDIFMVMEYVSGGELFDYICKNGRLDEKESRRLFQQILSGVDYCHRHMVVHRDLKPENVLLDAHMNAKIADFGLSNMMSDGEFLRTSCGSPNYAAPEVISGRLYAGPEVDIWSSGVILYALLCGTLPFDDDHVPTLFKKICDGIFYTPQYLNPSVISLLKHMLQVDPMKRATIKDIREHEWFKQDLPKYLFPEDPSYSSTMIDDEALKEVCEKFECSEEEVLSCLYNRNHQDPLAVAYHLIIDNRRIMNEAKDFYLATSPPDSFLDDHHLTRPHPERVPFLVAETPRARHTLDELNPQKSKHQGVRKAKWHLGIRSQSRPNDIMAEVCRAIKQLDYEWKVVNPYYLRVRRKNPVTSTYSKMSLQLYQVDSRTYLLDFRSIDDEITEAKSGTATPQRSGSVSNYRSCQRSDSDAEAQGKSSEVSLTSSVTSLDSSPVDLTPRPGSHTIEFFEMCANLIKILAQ
Chain of cGMP-dependent protein kinase 1 (Homo sapiens) (Q13976 whole entry): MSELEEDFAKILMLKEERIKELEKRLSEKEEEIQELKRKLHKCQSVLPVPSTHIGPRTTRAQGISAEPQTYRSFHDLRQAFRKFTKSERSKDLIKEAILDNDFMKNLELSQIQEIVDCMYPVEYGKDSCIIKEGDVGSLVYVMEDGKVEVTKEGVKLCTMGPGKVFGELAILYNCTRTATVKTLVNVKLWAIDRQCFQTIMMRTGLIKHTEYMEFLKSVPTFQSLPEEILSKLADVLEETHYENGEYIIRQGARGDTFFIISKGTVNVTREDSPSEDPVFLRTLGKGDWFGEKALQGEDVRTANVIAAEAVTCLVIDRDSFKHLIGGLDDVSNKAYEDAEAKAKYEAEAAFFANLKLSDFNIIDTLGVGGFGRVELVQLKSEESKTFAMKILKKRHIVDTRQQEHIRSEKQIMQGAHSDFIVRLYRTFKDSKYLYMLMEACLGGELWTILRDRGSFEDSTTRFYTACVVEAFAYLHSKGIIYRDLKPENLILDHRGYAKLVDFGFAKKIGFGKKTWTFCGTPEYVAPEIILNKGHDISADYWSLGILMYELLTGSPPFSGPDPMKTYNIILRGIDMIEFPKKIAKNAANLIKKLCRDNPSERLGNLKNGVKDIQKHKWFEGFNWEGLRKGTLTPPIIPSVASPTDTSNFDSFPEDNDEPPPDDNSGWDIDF

O=c1c(-c2ccc(F)cc2)c(-c2ccnc(NC3CCCCC3)c2)oc2ccccc12
Activity [1]: 66% | Activity [2]: 71% | Activity [3]: 102% | Activity [4]: 83% | Activity [5]: 102% | Activity [6]: 101% | Activity [7]: 111% | Activity [8]: 101% | Activity (Homo sapiens [9]): 100% | Activity [10]: 104% | Activity [11]: 24% | Activity [12]: 102% | Activity [13]: 102% | Activity [14]: 100% | Activity [15]: 100% | Activity [16]: 91% | Activity [17]: 96% | Activity [18]: 99% | Activity [19]: 102% | Activity [20]: 102% | Activity [21]: 105% | Activity [22]: 104% | Activity [23]: 124% | Activity (MDA-MB-436 [24]): inactive | Activity [25]: 101% | Activity [26]: 99% | Activity [27]: 116% | Activity [28]: 98% | Activity [29]: 104% | Activity (Homo sapiens [30]): 118% | Activity [31]: 97% | Activity [32]: 97% | Activity [33]: 87% | Activity [34]: 91% | Activity (MDA-MB-436 [35]): inactive

CC(C)Nc1cc(-c2oc3ccccc3c(=O)c2-c2ccc(F)cc2)ccn1
Activity [1]: 72% | Activity [2]: 58% | Activity [3]: 95% | Activity [4]: 73% | Activity [5]: 104% | Activity [6]: 95% | Activity [7]: 107% | Activity [8]: 100% | Activity (Homo sapiens [9]): 100% | Activity [10]: 99% | Activity [11]: 21% | Activity [12]: 105% | Activity [13]: 97% | Activity [14]: 94% | Activity [15]: 106% | Activity [16]: 98% | Activity [17]: 84% | Activity [18]: 120% | Activity [19]: 109% | Activity [20]: 96% | Activity [21]: 107% | Activity [22]: 105% | Activity [23]: 132% | Activity (MDA-MB-436 [24]): inactive | Activity [25]: 98% | Activity [26]: 100% | Activity [27]: 109% | Activity [28]: 98% | Activity [29]: 98% | Activity (Homo sapiens [30]): 114% | Activity [31]: 100% | Activity [32]: 94% | Activity [33]: 82% | Activity [34]: 88% | Activity (MDA-MB-436 [35]): inactive
